What was measured:
[1] = molecular target: T1, ALOX-isoform of P. nyererei (putative ALOX15 ortholog) (Pundamilia nyererei, UniProt A0A3B4GKQ4); assay: lysate supernatant oxygenation assay, RP-HPLC / NP-HPLC of products; format: biochemical; details: 100 µM AA; 3 min; products after reduction 12-HETE (major) and 8-HETE
T1 construct: gene alox12; cell lysate supernatant used (activity lost on purification)
T1 sequence (A0A3B4GKQ4 1-670): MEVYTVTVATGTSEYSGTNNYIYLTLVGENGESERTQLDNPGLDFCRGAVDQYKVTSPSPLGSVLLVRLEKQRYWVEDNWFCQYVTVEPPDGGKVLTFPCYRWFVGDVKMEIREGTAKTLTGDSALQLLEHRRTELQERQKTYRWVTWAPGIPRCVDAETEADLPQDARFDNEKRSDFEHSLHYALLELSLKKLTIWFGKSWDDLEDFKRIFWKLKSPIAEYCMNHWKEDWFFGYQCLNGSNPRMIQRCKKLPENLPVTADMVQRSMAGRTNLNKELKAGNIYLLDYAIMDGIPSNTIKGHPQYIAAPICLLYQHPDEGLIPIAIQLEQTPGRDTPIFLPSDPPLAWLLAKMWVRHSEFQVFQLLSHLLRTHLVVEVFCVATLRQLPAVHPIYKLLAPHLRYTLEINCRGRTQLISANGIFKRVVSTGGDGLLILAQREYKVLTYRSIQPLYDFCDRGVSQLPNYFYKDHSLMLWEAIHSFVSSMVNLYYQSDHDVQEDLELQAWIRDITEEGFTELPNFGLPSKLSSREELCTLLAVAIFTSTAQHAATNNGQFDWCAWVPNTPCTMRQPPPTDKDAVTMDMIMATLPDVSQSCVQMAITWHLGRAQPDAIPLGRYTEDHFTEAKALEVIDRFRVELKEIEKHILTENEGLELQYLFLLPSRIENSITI

[2] = molecular target: T2, ALOX-isoform of N. furzeri (putative ALOX15 ortholog) (Nothobranchius furzeri, UniProt A0A1A7ZHE9); assay: as above; format: biochemical; details: 100 µM AA; 3 min; products after reduction 12-HETE (major) and 8-HETE
T2 construct: gene ALOX12; cell lysate supernatant used (activity lost on purification)
T2 sequence (A0A1A7ZHE9 1-670): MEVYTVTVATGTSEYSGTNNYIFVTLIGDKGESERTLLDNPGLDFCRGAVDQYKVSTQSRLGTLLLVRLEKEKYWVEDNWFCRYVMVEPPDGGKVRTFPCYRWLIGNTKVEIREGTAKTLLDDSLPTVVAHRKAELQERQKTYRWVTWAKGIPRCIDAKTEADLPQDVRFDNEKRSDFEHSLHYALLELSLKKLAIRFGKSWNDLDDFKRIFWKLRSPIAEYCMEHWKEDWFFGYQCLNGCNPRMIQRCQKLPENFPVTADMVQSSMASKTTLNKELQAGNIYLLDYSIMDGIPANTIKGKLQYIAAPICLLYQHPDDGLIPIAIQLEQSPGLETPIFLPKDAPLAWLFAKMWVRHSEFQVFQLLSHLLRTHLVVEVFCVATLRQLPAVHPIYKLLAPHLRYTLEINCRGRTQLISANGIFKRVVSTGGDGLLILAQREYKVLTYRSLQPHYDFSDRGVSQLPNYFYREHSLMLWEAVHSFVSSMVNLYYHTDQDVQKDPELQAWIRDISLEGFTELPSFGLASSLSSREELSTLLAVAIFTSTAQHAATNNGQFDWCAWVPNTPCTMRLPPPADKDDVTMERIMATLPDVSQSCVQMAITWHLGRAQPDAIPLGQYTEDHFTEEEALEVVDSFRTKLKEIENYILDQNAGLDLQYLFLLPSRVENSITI

CCCCC/C=C\C/C=C\C/C=C\C/C=C\CCCC(=O)O [AA, arachidonic acid]
lysate supernatant oxygenation assay, RP-HPLC / NP-HPLC of products [1]: AA is oxygenated by the three bony fish ALOX-isoforms to a mixture of 12-HETE
lysate supernatant oxygenation assay, RP-HPLC / NP-HPLC of products [2]: AA is oxygenated by the three bony fish ALOX-isoforms to a mixture of 12-HETE

— paper PMC9787790, “Functional Characterization of Novel Bony Fish Lipoxygenase Isoforms and Their Possible Involvement in Inflammation” (International Journal of Molecular Sciences, 2022)
